Results published in patent publication US9518000B2, “Bicyclo [2.2.1] acid GPR120 modulators” (BRISTOL-MYERS SQUIBB COMPANY, priority 2013, dated 2016).
pEC50: −log10 of the molar value.

These compounds were tested against human GPR120 (Homo sapiens (Human), UniProt Q5NUL3) (assay: GPR120 pERK AlphaScreen SureFire Assay (human GPR120 pERK assay)). Settings: CHOA12 or CHO-K1 cells stably transfected with the short form of human GPR120 receptor; phosphorylated ERK; read-out: EC50 values measured in the human GPR120 pERK assay.
Chain of human GPR120 (Q5NUL3 whole entry): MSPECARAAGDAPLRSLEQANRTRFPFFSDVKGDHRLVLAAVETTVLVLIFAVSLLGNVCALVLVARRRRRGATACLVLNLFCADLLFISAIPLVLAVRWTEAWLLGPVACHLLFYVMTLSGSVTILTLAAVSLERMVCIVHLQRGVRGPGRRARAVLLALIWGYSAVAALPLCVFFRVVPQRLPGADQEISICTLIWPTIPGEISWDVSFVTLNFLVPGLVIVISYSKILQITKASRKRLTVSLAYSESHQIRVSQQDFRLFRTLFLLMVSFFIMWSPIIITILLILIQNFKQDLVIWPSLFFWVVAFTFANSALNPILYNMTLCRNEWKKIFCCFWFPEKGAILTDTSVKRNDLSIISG
Format: cell-based
Text: GPR120 activity was monitored by measuring phosphorylation of ERK (pERK), since G protein receptors are known to activate the ERK signaling cascade either directly and/or through recruitment of arrestin that serves as a scaffold for downstream signaling events.
GPR120 pERK AlphaScreen SureFire Assay
The human and mouse GPR120-mediated intracellular phosphorylated ERK assays were established using CHOA12 cells stably transfected with the short form of human or mouse GPR120 receptor. Cells were cultured in growth medium consisting of F-12 media (Invitrogen Cat. #11765) with 5% Charcoal/Dextran FBS (Invitrogen Cat. #12676-029), 500 μg/mL GENETICIN® (Life Technologies Cat. #10131-027) and 250 μg/mL Zeocin (Invitrogen Cat. #R250-01). Cells were cryo preserved at a concentration of 2×10^7 cells/mL, in 90% Charcoal/Dextran FBS and 10% DMSO, and frozen in liquid nitrogen at a low passage number.
For the pERK assay, 2×10^7 cells/mL cryopreserved human and mouse cells were thawed rapidly in a 37° C. water bath and added to a T-225 flask containing 50 mL growth medium. The flasks were placed in a tissue culture incubator overnight (37° C., 5% CO2). The next day, cells were harvested with trypsin (Gibco Cat. #25300-054), resuspended in serum-containing growth medium and counted using a Cellometer and volume adjusted to a concentration of 0.6×10^6 cells/mL. Cells were plated into 384-well clear bottom tissue culture plates (BD Cat. #353962) at 50 μL/well, for a density of 30,000 cells/well using a MULTIDROP® and incubated for 16-18 hours (overnight) at 37° C. with 5% CO2. The next day, cells were serum starved in 30 μL of F-12 media without any serum or antibiotics for 2 hours at 37° C.
Test compounds were 3-fold, 11-point serially diluted in DMSO in a REMP assay plate (Matrix Cat. #4307) by Tecan and 5 μL was transferred into an ECHO source plate (LabCyte Cat. #LC-0200). Cells were then stimulated with 50 nL of compound dilutions using ECHO liquid handler for 7 minutes at 37° C. Compounds ranged from final assay concentrations of 33.33 μM to 0.56 nM.
The media was then dumped and cells lysed with 20 μL of 1× Lysis buffer from the AlphaScreen SureFire Phospho-ERK 1/2 Kit (Perkin Elmer Cat. #6760617M). The lysis buffer was diluted 5-fold with water before use. The plate was agitated on a shaker for 10 minutes after which 2 μL was transferred into a 384-well white proxiplate (Perkin Elmer Cat. #6008289). The SureFire assay reagent mix was prepared by mixing 60 parts Reaction Buffer, 10 parts Activation Buffer, 1 part Donor Beads, 1 part Acceptor Beads (Perkin Elmer Cat. #TGRES10K). 3.5 μL/well of this reagent mix was manually added to the proxiplate with a multichannel pipettor. Plates were spun down at 1000 rpm for 2 minutes, followed by light-protected incubation at room temperature for 2 hours. The plates were read on the Alpha-technology compatible Envision multilabel plate reader using AlphaScreen protocol according to manufacturer's specifications. The agonist effect of compounds was expressed as 100×(average sample-average blank)/(average total−average blank) where sample is the luminescence activity in the presence of test compound, blank is equal to the luminescence activity in the presence of DMSO control and the total is signal induced by 50 μM linolenic acid as reference compound. Activation data for the test compound over a range of concentrations was plotted as percentage activation of the test compound (100%=maximum response). After correcting for background, EC50 values were determined. The EC50 is defined as the concentration of test compound which produces 50% of the maximal response and was quantified using the 4 parameter logistic equation to fit the data.
The human and mouse GPR120-mediated intracellular phosphorylated ERK assays were also established using CHO-K1 cells stably transfected with the short form of human or mouse GPR120 receptor. […]

pEC50 | SMILES
5.96 | O=C(O)CCCC12CCC(OCc3ccc(Cl)c(Cl)c3)(CC1)C2 [Example 11, 4-(4-(3,4-dichlorobenzyl-oxy)bicyclo[2.2.1]heptan-1-yl) butanoic acid]
5.17 | Cc1ccc(COC23CCC(CCCC(=O)O)(CC2)C3)cc1F [Example 12, 4-(4-(3-fluoro-4-methylbenzyl-oxy)bicyclo [2.2.1]heptan-1-yl)butanoic acid]
5.12 | Cc1cc(COC23CCC(CCCC(=O)O)(CC2)C3)ccc1F [Example 13, 4-(4-(4-fluoro-3-methylbenzyl-oxy)bicyclo [2.2.1]heptan-1-yl)butanoic acid]
6.57 | O=C(O)CCCC12CCC(OCc3ccccc3Oc3ccccc3)(CC1)C2 [Example 14, 4-(4-(2-phenoxy-benzyloxy)bicyclo[2.2.1]heptan-1-yl) butanoic acid]
6.44 | O=C(O)CCCC12CCC(OCc3cccc(Oc4ccccc4)c3)(CC1)C2 [Example 15, 4-(4-(3-phenoxy-benzyloxy)bicyclo[2.2.1]heptan-1-yl) butanoic acid]
6.19 | O=C(O)CCCC12CCC(OCc3cccc(Oc4ccccc4F)c3)(CC1)C2 [Example 16, 4-(4-(3-(2-fluorophenoxy)benzyloxy)bicyclo[2.2.1]heptan-1-yl) butanoic acid]
6.60 | O=C(O)CCCC12CCC(OCc3cccc(Oc4ccc(F)cc4)c3)(CC1)C2 [Example 17, 4-(4-(3-(4-fluorophenoxy)benzyloxy)bicyclo[2.2.1]-1-yl)butanoic acid]
6.60 | O=C(O)CCCC12CCC(OCc3cc(Cl)cc(OC(F)(F)F)c3)(CC1)C2 [Example 18, 4-(4-(3-chloro-5-(trifluorometh-oxy)benzyloxy)bicyclo[2.2.1]heptan-1-yl) butanoic acid]
6.28 | O=C(O)CCCC12CCC(OCc3cc(Cl)ccc3OC(F)(F)F)(CC1)C2 [Example 19, 4-(4-(5-chloro-2-(trifluorometh-oxy)benzyloxy)bicyclo[2.2.1]heptan-1-yl) butanoic acid]
5.72 | COc1cc(COC23CCC(CCCC(=O)O)(CC2)C3)cc(OC)c1 [Example 21, 4-(4-(3,5-dimethoxybenzyl-oxy)bicyclo [2.2.1]heptan-1-yl)butanoic acid]
6.14 | O=C(O)CCCC12CCC(OCc3cc(F)cc(Cl)c3)(CC1)C2 [Example 22, 4-(4-(3-chloro-5-fluorobenzyl-oxy)bicyclo [2.2.1]heptan-1-yl)butanoic acid]
5.55 | O=C(O)CCCC12CCC(OCc3ccc(Cl)cc3)(CC1)C2 [Example 24, 4-(4-(4-chloro-benzyloxy)bicyclo[2.2.1]heptan-1-yl) butanoic acid]
6.19 | O=C(O)CCCC12CCC(OCc3cc(F)cc(C(F)(F)F)c3)(CC1)C2 [Example 25, 4-(4-(3-fluoro-5-(trifluoromethyl)benzyloxy)bicyclo[2.2.1]heptan-1-yl) butanoic acid]
6.21 | O=C(O)CCCC12CCC(OCc3cccc(OC(F)(F)F)c3)(CC1)C2 [Example 26, 4-(4-(3-(trifluoro-methoxy)benzyl-oxy)bicyclo[2.2.1]heptan-1-yl) butanoic acid]
5.81 | COc1cc(F)cc(COC23CCC(CCCC(=O)O)(CC2)C3)c1 [Example 27, 4-(4-(3-fluoro-5-methoxybenzyl-oxy)bicyclo [2.2.1]heptan-1-yl)butanoic acid]
6.41 | O=C(O)CCCC12CCC(OCc3cc(F)cc(OC(F)(F)F)c3)(CC1)C2 [Example 28, 4-(4-(3-fluoro-5-(trifluorometh-oxy)benzyloxy)bicyclo[2.2.1]heptan-1-yl) butanoic acid]

pEC50 | SMILES
5.29 | COc1ccc(OC(F)(F)F)cc1COC12CCC(CCCC(=O)O)(CC1)C2 [Example 29, 4-(4-(2-methoxy-5-(trifluorometh-oxy)benzyloxy)bicyclo[2.2.1]heptan-1-yl) butanoic acid]
6.07 | O=C(O)CCCC12CCC(OCc3csc4ccc(Cl)cc34)(CC1)C2 [Example 30, 4-(4-((5-chlorobenzo[b]thiophen-3-yl)methoxy)bicyclo[2.2.1]heptan-1-yl) butanoic acid]
6.05 | COc1cc(Cl)cc(COC23CCC(CCCC(=O)O)(CC2)C3)c1 [Example 31, 4-(4-(3-chloro-5-methoxybenzyl-oxy)bicyclo [2.2.1]heptan-1-yl)butanoic acid]
6.23 | O=C(O)CCCC12CCC(OCc3cccc(Oc4ccc(Cl)cc4)c3)(CC1)C2 [Example 32, 4-(4-(3-(4-chlorophenoxy)benzyloxy)bicyclo [2.2.1]heptan-1-yl) butanoic acid]
6.59 | O=C(O)CCCC12CCC(OCc3cc(OC(F)(F)F)ccc3F)(CC1)C2 [Example 33, 4-(4-(2-fluoro-5-(trifluorometh-oxy)benzyloxy)bicyclo[2.2.1]heptan-1-yl) butanoic acid]
6.40 | O=C(O)CCCC12CCC(OCc3cc(F)cc(Oc4ccccc4)c3)(CC1)C2 [Example 34, 4-(4-(3-fluoro-5-phenoxybenzyl-oxy)bicyclo [2.2.1]heptan-1-yl)butanoic acid]
6.36 | CC(C)Oc1cc(F)cc(COC23CCC(CCCC(=O)O)(CC2)C3)c1 [Example 35, 4-(4-(3-fluoro-5-isopropoxybenzyl-oxy)bicyclo [2.2.1]heptan-1-yl)butanoic acid]
5.81 | CC(C)Oc1ccccc1COC12CCC(CCCC(=O)O)(CC1)C2 [Example 36, 4-(4-(2-isopropoxy-benzyloxy)bicyclo [2.2.1]heptan-1-yl)butanoic acid]
5.51 | Cc1nc(-c2cccc(COC34CCC(CCCC(=O)O)(CC3)C4)c2)no1 [Example 37, 4-(4-(3-(5-methyl-1,2,4-oxadiazol-3-yl)benzyloxy)bicyclo[2.2.1]heptan-1-yl) butanoic acid]
5.77 | CC(C)Oc1cccc(COC23CCC(CCCC(=O)O)(CC2)C3)c1 [Example 38, 4-(4-(3-isopropoxy-benzyloxy)bicyclo [2.2.1]heptan-1-yl)butanoic acid]
6.09 | O=C(O)CCCC12CCC(OCc3cccc(C(=O)c4ccccc4)c3)(CC1)C2 [Example 39, 4-(4-(3-benzoyl-benzyloxy)bicyclo[2.2.1]heptan-1-yl) butanoic acid]
5.64 | COc1cc(Cl)ccc1COC12CCC(CCCC(=O)O)(CC1)C2 [Example 40, 4-(4-(4-chloro-2-methoxybenzyl-oxy)bicyclo [2.2.1]heptan-1-yl)butanoic acid]
5.96 | O=C(O)CCCC12CCC(OCc3ccc(Cl)cc3Cl)(CC1)C2 [Example 41, 4-(4-(2,4-dichlorobenzyloxy)bicyclo[2.2.1]heptan-1-yl) butanoic acid]
5.04 | COc1ccc(COC23CCC(CCCC(=O)O)(CC2)C3)c(F)c1 [Example 42, 4-(4-(2-fluoro-4-methoxybenzyl-oxy)bicyclo[2.2.1]heptan-1-yl) butanoic acid]
6.49 | COc1ccc(COC23CCC(CCCC(=O)O)(CC2)C3)c(OC(F)(F)F)c1 [Example 43, 4-(4-(4-methoxy-2-(trifluoromethoxy)benzyloxy)bicyclo[2.2.1]heptan-1-yl) butanoic acid]
6.03 | O=C(O)CCCC12CCC(OCc3cc(F)ccc3OC(F)(F)F)(CC1)C2 [Example 44, 4-(4-(5-fluoro-2-(trifluorometh-oxy)benzyloxy)bicyclo[2.2.1]heptan-1-yl) butanoic acid]

SMILES | pEC50
O=C(O)CCCC12CCC(OCc3cccc(Cl)c3)(CC1)C2 [Example 23, 4-(4-(3-chloro-benzyloxy)bicyclo[2.2.1]heptan-1-yl) butanoic aicd] | 5.94
